According to US7727956B2, “Deoxonadepsipeptides” (Aicuris GmbH & Co. KG, priority 2004, dated 2010):
Converted amounts (≈) assume the structure as drawn. Like-named read-outs stand apart in the source and are kept apart here. Starred links: 1 amine or outer side, 2 acyl side, 3 side chain; linkers in the order of their positions; H or OH if unused. Positions of bridges follow the written chain, without caps; N, C: chain ends. Non-standard residues stand in square brackets, D forms with d. Residues, ends and D or L forms follow the SMILES beside them. X3 = C[Si](C)(C)C[C@H](N)CN([C@@H](C[Si](C)(C)C)C(=O)[*:2])[*:1]; X4 = CC(C)(C)C[C@@H](C(=O)[*:2])N(C[C@@H](N)C[Si](C)(C)C)[*:1]; X1 = CC(C)C[C@@H](C(=O)[*:2])N(C[C@@H](N)C[Si](C)(C)C)[*:1]; Phe(3R-OH) = O=C([C@@H](N[*:1])[C@H](O[*:3])c1ccccc1)[*:2]; X2 = CC(C)(C)C[C@H](N)CN([C@@H](CC(C)(C)C)C(=O)[*:2])[*:1]; Asn(3S-OH) = NC(=O)[C@@H](O)[C@H](N)C(=O)O; Leu(3R-OH) = CC(C)[C@@H](O)[C@H](N)C(=O)O; aThr = C[C@H](O)[C@H](N)C(=O)O

How the values were obtained:
[1] = system: Streptococcus pneumoniae G9a; assay type: cell-based
Description: (§1) Determination of the Minimum Inhibitory Concentration (MIC):
(§2) The MIC is determined in the liquid dilution test in accordance with the NCCLS guidelines. Overnight cultures of Staphylococcus aureus 133, Entercococcus faecalis 27159, E. faecium 4147 and Streptococcus pneumoniae G9a are incubated with the described test substances in a 1:2 dilution series. The MIC determination is carried out with a cell count of 105 microorganisms per ml in Isosensitest medium (Difco, Irvine/USA), with the exception of S. pneumoniae, which is tested in BHI broth (Difco, Irvine/USA) with 10% bovine serum at a cell count of 106 microorganisms per ml. The cultures are incubated at 37° C. for 18-24 hours, S. pneumoniae in the presence of 10% CO2.
(§3) The lowest substance concentration in each case at which no visible bacterial growth occurs any more is defined as the MIC. The MIC values are reported in μg/ml.

[2] = system: Staphylococcus aureus 133; assay type: cell-based
Description: as §1, §2, §3

E. faecalis ICB 27159 = assay type: cell-based, Entercococcus faecalis
Description: as §1, §2, §3

[3] = BHI broth with 10% bovine serum, 37° C., 18-24 hours, 10% CO2
[4] = Isosensitest medium, 37° C., 18-24 hours

Row | SMILES | MIC S. pneumoniae [1, 3] | MIC S. aureus 133 [2, 4] | MIC E. faecalis ICB 27159 (E. faecalis ICB 27159; [4]) | MIC S. pneumoniae ([1]; G9a) | MIC S. aureus 133 [2]; 133 | MIC E. faecalis ICB 27159 (E. faecalis ICB 27159; ICB 27159)
1 | CC[C@H](C)[C@@H]1NC(=O)[C@@H](CCCNC(=N)N)NC(=O)[C@H](CC(C)C)NC(=O)[C@H]([C@H](O)C(C)C)NC(=O)[C@@H](NC(=O)[C@H](CC(C)C)NC[C@@H](N)C[Si](C)(C)C)[C@@H](c2ccccc2)OC(=O)[C@H](CO)NC(=O)[C@H]([C@H](O)C(N)=O)NC(=O)CNC(=O)[C@H]([C@H](C)O)NC1=O [Example 5, N-[(2R)-2-Amino-3-trimethylsilyl-prop-1-yl]de(1-D-leucine) lysobactin trishydro-trifluoroacetate] (H-[X1][Phe(3R-OH)][Leu(3R-OH)]L[dR]I[aThr]G[Asn(3S-OH)]S; ester 2-C) | 0.063 µg/mL (≈ 0.0487 µM) | 0.5 µg/mL (≈ 0.387 µM) | 1 µg/mL (≈ 0.774 µM) | – | – | –
2 | CC[C@H](C)[C@@H]1NC(=O)[C@@H](CCCNC(=N)N)NC(=O)[C@H](CC(C)C)NC(=O)[C@H]([C@H](O)C(C)C)NC(=O)[C@@H](NC(=O)[C@H](CC(C)(C)C)NC[C@@H](N)CC(C)(C)C)[C@@H](c2ccccc2)OC(=O)[C@H](CO)NC(=O)[C@H]([C@H](O)C(N)=O)NC(=O)CNC(=O)[C@H]([C@H](C)O)NC1=O [Example 8, N-{N-[(2S)-2-Amino-4,4-dimethylpent-1-yl]-β-tBu-Ala-de(1-D-leucine-2-leucine)-lysobactintris-hydrofluoro-acetate] (H-[X2][Phe(3R-OH)][Leu(3R-OH)]L[dR]I[aThr]G[Asn(3S-OH)]S; ester 2-C) | – | – | – | 0.063 µg/mL (≈ 0.0488 µM) | 0.5 µg/mL (≈ 0.387 µM) | 1 µg/mL (≈ 0.775 µM)
3 | CC[C@H](C)[C@@H]1NC(=O)[C@@H](CCCNC(=N)N)NC(=O)[C@H](CC(C)C)NC(=O)[C@H]([C@H](O)C(C)C)NC(=O)[C@@H](NC(=O)[C@H](C[Si](C)(C)C)NC[C@@H](N)C[Si](C)(C)C)[C@@H](c2ccccc2)OC(=O)[C@H](CO)NC(=O)[C@H]([C@H](O)C(N)=O)NC(=O)CNC(=O)[C@H]([C@H](C)O)NC1=O [Example 14, N-{N-[(2R)-2-Amino-3-trimethylsilyl-prop-1-yl]-(β-trimethylsilyl)-Ala]}de(1-D-leucine-2-leucine)-lysobactin tris-hydrotrifluoro-acetate] (H-[X3][Phe(3R-OH)][Leu(3R-OH)]L[dR]I[aThr]G[Asn(3S-OH)]S; ester 2-C) | 0.0156 µg/mL (≈ 0.0118 µM) | 0.25 µg/mL (≈ 0.189 µM) | 0.125 µg/mL (≈ 0.0945 µM) | – | – | –
4 | CC[C@H](C)[C@@H]1NC(=O)[C@@H](CCCNC(=N)N)NC(=O)[C@H](CC(C)C)NC(=O)[C@H]([C@H](O)C(C)C)NC(=O)[C@@H](NC(=O)[C@H](CC(C)(C)C)NC[C@@H](N)C[Si](C)(C)C)[C@@H](c2ccccc2)OC(=O)[C@H](CO)NC(=O)[C@H]([C@H](O)C(N)=O)NC(=O)CNC(=O)[C@H]([C@H](C)O)NC1=O [Example 15, N-{N-[(2R)-2-Amino-3-tri-methylsilylprop-1-yl]-(β-tBu-Ala)}-de(1-D-leucine-2-leucine) lysobactin trishydro-trifluoroacetate] (H-[X4][Phe(3R-OH)][Leu(3R-OH)]L[dR]I[aThr]G[Asn(3S-OH)]S; ester 2-C) | 0.063 µg/mL (≈ 0.0482 µM) | 0.5 µg/mL (≈ 0.383 µM) | 1 µg/mL (≈ 0.765 µM) | – | – | –
